In patent US20240058392A1, “COMPOSITION COMPRISING SEA CUCUMBER GENITAL GLAND EXTRACT, COMPOUND DERIVED FROM SEA CUCUMBER OVARY EXTRACT, AND USE THEREOF” (BIOINFORMATICS & MOLECULAR DESIGN RESEARCH CENTER, priority 2020, published 2024):
Read-outs that look alike come from different tables or passages of the source.

How the values were obtained:
3T3-L1 cells [1] = assay: Glucose Uptake-Glo Assay, saponin compounds; type: cell-based; conditions: Mus musculus, read-out: Fold Relative to Control (glucose uptake)
Protocol: The 3T3-L1 cells were cultured in a high glucose DMEM medium in which 10% Calf serum and penicillin-streptomycin were added, and subcultured per 2-3 days. […] After 2 days, it was replaced with a medium containing insulin, and the medium was replaced again per 2 days to induce differentiation.
For the differentiation-completed 3T3-L1 cells, starvation was conducted for 16 hours, and then a sea cucumber-derived single compound was treated in a serum-free medium at a concentration of 2.5 ug/mL for 6 hours. The cultured supernatant was recovered and for the 3T3-L1 cells, using Glucose Uptake-Glo Assay Kit, the glucose transport activity degree was measured using a luminometer.

3T3-L1 cells [2] = assay: 3T3-L1 cell viability of single compounds separated from sea cucumber ovary extract; conditions: single compounds 2.5-5 μg/ml
[3] = system: FAS, PPARγ, C/EBPα, and FABP4; assay: Expression of adipogenesis-related proteins in 3T3-L1 cells treated with single compounds; type: cell-based
Protocol: In order to investigate the effect on expression of the adipocytes differentiation-related proteins by the sea cucumber extract, expression of the related proteins was confirmed through western blot. The differentiation-completed 3T3-L1 cells were washed with PBS, and then lysis was conducted with RIPA buffer, and then the proteins were separated by molecular weight through SDS-PAGE. After that, it was transferred to a PVDF membrane and it was blocked using 5% skim milk for 30 minutes. Then, it was reacted with a primary antibody, and then a secondary antibody was attached to confirm protein expression using an ECL solution.
In order to figure out the mechanism of the fat accumulation inhibitory efficacy of the single compound examined above, the degree of expression of proteins of FAS, PPARγ, C/EBPα, and FABP4, which were adipogenesis-related proteins was confirmed.

3T3-L1 cells [4] = system: 3T3-L1 cells
3T3-L1 cells [5] = assay: Oil red O staining, single compounds of sea cucumber ovary extract; type: cell-based
Protocol: The differentiation-completed 3T3-L1 cells were fixed with 4% formaldehyde for 1 hour, and then fats were stained using a 0.5% Oil red O staining solution to confirm the degree of differentiation. For quantitative analysis of adipose differentiation, the dye stained in the cells was dissolved with 100% isopropyl alcohol and the absorbance was measured at 500 nm.
In order to investigate the effect on adipose differentiation of the 3T3-L1 cells of the single compound in the sea cucumber ovary extract, a total 8 of compounds were treated with a differentiation medium at a concentration of 2.5 and 5 μg/ml for 48 hours.

[6] = differentiated 3T3-L1 cells, compound 2.5 ug/mL, 6 hours, serum-free medium
[7] = 1 μg/ml, compared to the control group

| SMILES | fold induction at 2.5 µg/mL (3T3-L1 cells [1]; [6]) | fold induction at 2.5 µg/mL (3T3-L1 cells [1]; 3T3-L1, 6 h) | expression of adipogenesis-related proteins FAS, PPARγ, C/EBPα, and FABP4 [3] | further results |
| --- | --- | --- | --- | --- |
| C=C(C)CCC[C@@]1(C)OC(=O)C23CC=C4C(CCC5C(C)(C)[C@@H](O[C@@H]6OCC(O[C@@H]7OC(CO)C(O)[C@H](O[C@@H]8OC(CO)C(O)[C@H](OC)C8O)C7O)[C@H](O)C6O[C@@H]6OC(CO)C(O[C@@H]7OC(CO)C(O)[C@H](O[C@@H]8OC(CO)C(O)[C@H](O)C8O)C7O)[C@H](O)C6O)CC[C@]45C)C2(C)CC(=O)C31 (stereo partly shown) [S4] | 1.6 |  |  | change of 3T3-L1 cell viability (3T3-L1 cells [2]): a significant decrease was shown; expression of adipogenesis-related proteins FAS, PPARγ, C/EBPα, and FABP4 [3, 7]: definitely reduced; expression of adipogenesis-related proteins FAS, PPARγ, C/EBPα, and FABP4 ([3]; from 2.5 μg/ml): expression of the related proteins was definitely reduced |
| C=C(C)CCC[C@@]1(C)OC(=O)C23CC=C4C(CCC5C(C)(C)[C@@H](O[C@@H]6OCC(O[C@@H]7OC(CO)C(O)[C@H](O[C@@H]8OC(CO)C(O)[C@H](O)C8O)C7O)[C@H](O)C6O[C@@H]6OC(CO)C(O[C@@H]7OCC(O)[C@H](O[C@@H]8OC(CO)C(O)[C@H](OC)C8O)C7O)[C@H](O)C6O)CC[C@]45C)C2(C)CC(=O)C31 (stereo partly shown) [S5, holotoxin D1] |  | 1.38 | expression of the related proteins was definitely reduced | change of 3T3-L1 cell viability (3T3-L1 cells [4]): a significant decrease was shown |
| C=C(C)CCC[C@](C)(O)[C@@H]1[C@@H]2CC3(C)C4=CCC5C(C)(C)[C@@H](O[C@@H]6OCC(O[C@@H]7OC(CO)C(O)[C@H](O)C7O)[C@H](O)C6O[C@@H]6OC(C)C(O[C@@H]7OC(CO)C(O)[C@H](O[C@@H]8OC(CO)C(O)[C@H](OC)C8O)C7O)[C@H](O)C6O)CC[C@]5(C)C4CCC13C(=O)O2 (stereo partly shown) [S3] | 1.1 |  |  | change of 3T3-L1 cell viability (3T3-L1 cells [2]): a significant decrease was shown; expression of adipogenesis-related proteins FAS, PPARγ, C/EBPα, and FABP4 [3, 7]: definitely reduced; expression of adipogenesis-related proteins FAS, PPARγ, C/EBPα, and FABP4 ([3]; from 2.5 μg/ml): expression of the related proteins was definitely reduced; inhibition at 1 µg/mL (3T3-L1 cells [5]; Mus musculus, 3T3-L1, 1 μg/ml (lowest of the series from 1 μg/ml to 5 μg/ml), read-out: inhibition of fat accumulation): ~16%; inhibition at 5 µg/mL (3T3-L1 cells [5]; Mus musculus, 3T3-L1, 5 μg/ml (highest of the series from 1 μg/ml to 5 μg/ml), read-out: inhibition of fat accumulation): ~80%; inhibition of fat accumulation (3T3-L1 cells [5]; middle concentration of the series from 1 μg/ml to 5 μg/ml (2.5 μg/ml by the method)): ~40% |
| C=C(C)CCC[C@](C)(O)[C@@H]1[C@@H]2CC3(C)C4=CCC5C(C)(C)[C@@H](O[C@@H]6OCC(O[C@@H]7OC(CO)C(O)[C@H](O)C7O)[C@H](O)C6O[C@@H]6OC(C)C(O[C@@H]7OC(CO)C(O)[C@H](O[C@@H]8OC(CO)C(O)[C@H](O)C8O)C7O)[C@H](O)C6O)CC[C@]5(C)C4CCC13C(=O)O2 (stereo partly shown) [S2] | 1.43 |  |  | expression of adipogenesis-related proteins FAS, PPARγ, C/EBPα, and FABP4 ([3]; compared to the control, concentration not given): a significant difference in protein expression was not shown |
| C=C(C)CCC[C@](C)(O)[C@@H]1[C@@H]2CC3(C)C4=CCC5C(C)(C)[C@@H](O[C@@H]6OCC(O[C@@H]7OC(CO)C(O)[C@H](O)C7O)[C@H](O)C6O[C@@H]6OC(CO)C(O[C@@H]7OC(CO)C(O)[C@H](O[C@@H]8OC(CO)C(O)[C@H](O)C8O)C7O)[C@H](O)C6O)CC[C@]5(C)C4CCC13C(=O)O2 (stereo partly shown) [S1] | 1.25 |  |  |  |
| C=C(C)CCC[C@@]1(C)OC(=O)C23CC=C4C(CCC5C(C)(C)[C@@H](O[C@@H]6OCC(O[C@@H]7OC(CO)C(O)[C@H](O[C@@H]8OC(CO)C(O)[C@H](O)C8O)C7O)[C@H](O)C6O[C@@H]6OC(C)C(O[C@@H]7OC(CO)C(O)[C@H](O[C@@H]8OC(CO)C(O)[C@H](OC)C8O)C7O)[C@H](O)C6O)CC[C@]45C)C2(C)CC(=O)C31 (stereo partly shown) [S6, holotoxin B] |  | 1.24 | a definite decrease in protein expression |  |
| C=C(C)CCC[C@@]1(C)OC(=O)C23CC=C4C(CCC5C(C)(C)[C@@H](O[C@@H]6OCC(O[C@@H]7OC(CO)C(O)[C@H](O[C@@H]8OC(CO)C(O)[C@H](OC)C8O)C7O)[C@H](O)C6O[C@@H]6OC(C)C(O[C@@H]7OC(CO)C(O)[C@H](O[C@@H]8OC(CO)C(O)[C@H](OC)C8O)C7O)[C@H](O)C6O)CC[C@]45C)C2(C)CC(=O)C31 (stereo partly shown) [S8, holotoxin A] |  | 1.43 | a definite decrease in protein expression |  |
| C=C(C)CCC[C@](C)(O)[C@@H]1[C@@H]2CC3(C)C4=CCC5C(C)(C)[C@@H](O[C@@H]6OCC(O[C@@H]7OC(CO)C(O)[C@H](O)C7O)[C@H](O)C6O[C@@H]6OC(C)C(O[C@@H]7OC(CO)C(O)[C@H](O)C7O)[C@H](O)C6O)CC[C@]5(C)C4CCC13C(=O)O2 (stereo partly shown) [S9] | 1.03 |  |  |  |
